This note sets out measurements from patent US9643980B2, “Benzoxazepin oxazolidinone compounds and methods of use” (Genentech, Inc., priority 2015, dated 2017).

The subject of assay [1] is P-PRAS40 SW48(H1047R). In words: Inhibition of P-PRAS40 in SW48 isogenic cells, PI3Kα mutant H1047R. The assay is classed as cell-based. To be noted: for pEC50: SW48, 24 hours of compound treatment, read-out: P-PRAS40 SW48(H1047R) EC50. As for the experimental part: (§1) All statistics were performed using KaleidaGraph Software (version 4.1.3). A Student t-Test was performed using unpaired data with equal variance to compare activity against mutant cells and wild-type cells. P<0.05 is considered to be significant.
(§2) The following assays are intended for determining the cellular potency and mutant selectivity of small molecule PI3Kα inhibitors. […] Mutant selectivity of PI3Kα inhibitors is determined by EC50 potency ratios in the WT vs. E545K cell lines and WT vs. H1047R cell lines.
(§3) The three cell lines (WT, E545K, and H1047R) are plated and assayed in parallel. The following day, test compounds are serially diluted in dimethyl sulfoxide (DMSO) and added to cells (final DMSO concentration 0.5%). […] Cell lysates are added to assay plates pre-coated with antibodies against phosphorylated PRAS40. Phosphorylated PRAS40 in samples are allowed to bind to the capture antibodies overnight at 4° C. The detection antibody (anti-total PRAS40, labeled with an electrochemiluminescent SULFO-TAG) is added to the bound lysate and incubated for 1 hour at room temperature. The MSD Read Buffer is added such that when a voltage is applied to the plate electrodes, the labels bound to the electrode surface emit light. The MSD Sector Instrument measures the intensity of the light, and quantitatively measures the amount of phosphor-PRAS40 in the sample. Percent inhibition of PRAS40 phosphorylation by varying concentrations of test compounds is calculated relative to untreated controls. EC50 values are calculated using the 4 parameter logistic nonlinear regression dose-response model.

The target of assay [2] is PI3Kβ (Homo sapiens, UniProt P42338). In words: PI3K binding assay (lipid kinase reaction, ADP-Glo), PI3K beta. Type of assay: biochemical. To be noted: Table 2A; first value of cell (ADP-Glo, Example 901). As for the experimental part:
(§4) Reactions are carried out using the following conditions for each PI3K isoform as in Table 5.
(§5) All reactions are carried out at room temperature. […] The reaction is started by the addition of 2 μL ATP/MgCl2. The kinase reaction buffer contains 50 mM HEPES, 50 mM NaCl 3 mM MgCl2, 0.01% BSA, 1% DMSO, and enzyme and substrate concentrations as indicated in the above table. The reaction is stopped by the addition of 10 μL ADP-Glo reagent. Plates are read in a Perkin Elmer Envision system using luminescence mode. 10 point dose response curves are generated for each test compound. Ki values for each compound are determined using the Morrison Equation.
(In ADP-Glo the light output rises with the ADP produced.)

Assay [3] deals with PI3Kγ (Homo sapiens, UniProt P48736). In words: PI3K binding assay (lipid kinase reaction, ADP-Glo), PI3K gamma. Type of assay: biochemical. To be noted: Table 2A; first value of cell (ADP-Glo, Example 901). As for the experimental part: as §4, §5
Chain of PI3Kγ (P48736 whole entry): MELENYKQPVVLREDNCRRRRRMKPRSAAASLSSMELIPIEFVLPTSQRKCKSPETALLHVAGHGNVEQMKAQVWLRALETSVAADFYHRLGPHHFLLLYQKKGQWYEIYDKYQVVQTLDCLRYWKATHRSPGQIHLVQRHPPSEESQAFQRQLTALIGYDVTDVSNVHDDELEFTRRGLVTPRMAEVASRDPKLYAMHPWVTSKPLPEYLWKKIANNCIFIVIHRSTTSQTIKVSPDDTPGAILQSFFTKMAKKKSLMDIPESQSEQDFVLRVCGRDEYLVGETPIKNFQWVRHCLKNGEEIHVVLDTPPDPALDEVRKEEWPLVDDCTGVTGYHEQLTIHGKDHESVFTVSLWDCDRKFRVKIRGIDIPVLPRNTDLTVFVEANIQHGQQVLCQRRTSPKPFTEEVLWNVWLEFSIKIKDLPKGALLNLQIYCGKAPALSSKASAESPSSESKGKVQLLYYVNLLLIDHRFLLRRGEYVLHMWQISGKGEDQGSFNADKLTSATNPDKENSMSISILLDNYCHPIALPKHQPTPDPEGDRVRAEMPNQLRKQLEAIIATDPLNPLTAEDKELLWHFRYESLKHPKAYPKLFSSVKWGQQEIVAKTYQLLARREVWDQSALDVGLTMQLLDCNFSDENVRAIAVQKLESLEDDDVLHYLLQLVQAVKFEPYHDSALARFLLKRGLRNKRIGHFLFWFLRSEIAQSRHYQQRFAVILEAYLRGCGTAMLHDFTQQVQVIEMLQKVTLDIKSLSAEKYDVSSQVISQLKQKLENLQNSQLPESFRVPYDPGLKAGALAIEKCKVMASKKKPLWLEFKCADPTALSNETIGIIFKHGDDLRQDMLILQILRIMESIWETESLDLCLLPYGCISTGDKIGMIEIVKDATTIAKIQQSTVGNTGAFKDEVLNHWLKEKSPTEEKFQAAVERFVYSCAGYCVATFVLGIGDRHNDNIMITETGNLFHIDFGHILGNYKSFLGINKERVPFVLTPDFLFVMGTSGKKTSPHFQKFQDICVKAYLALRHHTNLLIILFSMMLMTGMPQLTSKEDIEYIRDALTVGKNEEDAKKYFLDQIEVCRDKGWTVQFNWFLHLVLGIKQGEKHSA
The target of assay [4] is PI3Kα (Homo sapiens, UniProt P42336). In words: PI3K binding assay (lipid kinase reaction, ADP-Glo), PI3K alpha. Type of assay: biochemical. The method, then: as §4, §5
Chain of PI3Kα (P42336 whole entry): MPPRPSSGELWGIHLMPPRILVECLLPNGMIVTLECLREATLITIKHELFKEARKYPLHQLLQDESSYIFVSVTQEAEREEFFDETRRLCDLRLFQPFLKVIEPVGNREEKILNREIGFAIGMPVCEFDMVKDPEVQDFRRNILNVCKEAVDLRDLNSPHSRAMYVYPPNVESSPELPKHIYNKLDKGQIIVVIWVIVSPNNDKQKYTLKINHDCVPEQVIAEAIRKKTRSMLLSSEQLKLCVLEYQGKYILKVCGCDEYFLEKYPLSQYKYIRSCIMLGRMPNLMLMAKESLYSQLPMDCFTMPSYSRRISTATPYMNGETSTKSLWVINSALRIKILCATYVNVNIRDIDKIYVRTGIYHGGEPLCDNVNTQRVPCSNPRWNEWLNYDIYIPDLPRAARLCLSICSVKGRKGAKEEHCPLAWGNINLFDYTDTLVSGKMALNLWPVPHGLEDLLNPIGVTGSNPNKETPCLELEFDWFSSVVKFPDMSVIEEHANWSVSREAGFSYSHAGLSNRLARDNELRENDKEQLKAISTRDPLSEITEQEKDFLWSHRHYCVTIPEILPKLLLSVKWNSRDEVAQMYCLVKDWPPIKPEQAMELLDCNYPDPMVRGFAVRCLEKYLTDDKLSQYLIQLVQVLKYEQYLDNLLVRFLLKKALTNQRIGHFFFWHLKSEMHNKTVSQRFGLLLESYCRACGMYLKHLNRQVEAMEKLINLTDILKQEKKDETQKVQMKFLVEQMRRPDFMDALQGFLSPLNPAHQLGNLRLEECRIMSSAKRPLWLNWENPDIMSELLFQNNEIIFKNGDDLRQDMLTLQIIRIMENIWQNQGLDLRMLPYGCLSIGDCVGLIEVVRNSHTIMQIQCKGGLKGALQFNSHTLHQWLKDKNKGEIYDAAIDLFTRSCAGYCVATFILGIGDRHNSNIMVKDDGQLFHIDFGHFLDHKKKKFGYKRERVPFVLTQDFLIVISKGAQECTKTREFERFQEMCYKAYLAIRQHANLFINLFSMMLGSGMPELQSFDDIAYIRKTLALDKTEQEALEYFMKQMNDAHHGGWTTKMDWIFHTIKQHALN
Chain of PI3Kα (P27986 whole entry partner): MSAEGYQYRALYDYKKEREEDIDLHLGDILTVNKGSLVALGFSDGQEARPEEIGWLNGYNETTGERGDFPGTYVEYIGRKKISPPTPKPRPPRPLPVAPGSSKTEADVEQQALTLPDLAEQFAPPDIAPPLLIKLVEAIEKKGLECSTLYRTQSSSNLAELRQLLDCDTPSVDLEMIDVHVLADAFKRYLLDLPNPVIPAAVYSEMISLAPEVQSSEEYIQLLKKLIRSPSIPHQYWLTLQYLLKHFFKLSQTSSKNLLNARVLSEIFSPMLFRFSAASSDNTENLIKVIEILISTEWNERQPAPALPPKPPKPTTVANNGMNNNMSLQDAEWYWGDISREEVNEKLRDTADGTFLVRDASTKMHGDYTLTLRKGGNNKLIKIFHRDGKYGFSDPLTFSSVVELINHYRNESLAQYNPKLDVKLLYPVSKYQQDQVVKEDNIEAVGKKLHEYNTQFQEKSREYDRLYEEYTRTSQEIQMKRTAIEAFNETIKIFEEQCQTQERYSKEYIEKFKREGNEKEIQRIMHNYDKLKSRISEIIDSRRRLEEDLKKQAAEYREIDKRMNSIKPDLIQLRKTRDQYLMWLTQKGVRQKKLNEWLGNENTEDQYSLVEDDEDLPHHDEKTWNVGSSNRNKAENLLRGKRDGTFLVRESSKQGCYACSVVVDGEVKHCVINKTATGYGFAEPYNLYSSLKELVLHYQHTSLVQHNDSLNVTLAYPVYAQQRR
For assay [5], the system named is P-PRAS40 SW48(E545K). In words: Inhibition of P-PRAS40 in SW48 isogenic cells, PI3Kα mutant E545K. The assay is classed as cell-based. The settings on record: for pEC50: SW48, 24 hours of compound treatment, read-out: P-PRAS40 SW48(E545K) EC50. As for the experimental part:
as §1, §2, §3

For assay [6], the target named is PI3Kδ (Homo sapiens, UniProt O00329). In words: PI3K binding assay (lipid kinase reaction, ADP-Glo), PI3K delta. Type of assay: biochemical. The method, then:
as §4, §5

The test system of assay [7] is P-PRAS40 SW48(parental). In words: Inhibition of P-PRAS40 in SW48 isogenic cells, PI3Kα wild-type (parental). To be noted: Homo sapiens, SW48, 24 h.
Description: The three cell lines (WT, E545K, and H1047R) are plated and assayed in parallel. The following day, test compounds are serially diluted in dimethyl sulfoxide (DMSO) and added to cells (final DMSO concentration 0.5%). Cells are then incubated for 24 hours at 37° C. and 5% CO2. […] Cell lysates are added to assay plates pre-coated with antibodies against phosphorylated PRAS40. Phosphorylated PRAS40 in samples are allowed to bind to the capture antibodies overnight at 4° C. The detection antibody (anti-total PRAS40, labeled with an electrochemiluminescent SULFO-TAG) is added to the bound lysate and incubated for 1 hour at room temperature. The MSD Read Buffer is added such that when a voltage is applied to the plate electrodes, the labels bound to the electrode surface emit light. The MSD Sector Instrument measures the intensity of the light, and quantitatively measures the amount of phosphor-PRAS40 in the sample. Percent inhibition of PRAS40 phosphorylation by varying concentrations of test compounds is calculated relative to untreated controls. EC50 values are calculated using the 4 parameter logistic nonlinear regression dose-response model.
Setting [8] is: Homo sapiens, Table 3A, geometric mean.
Setting [9] is: Table 3A, EC50 potency ratio, p value (Student t-Test) given.
[10] abbreviates: Table 2A, selectivity ratio (fold).
The mark [11] stands for this setting: Homo sapiens, Table 3B comparator compounds.
[12] abbreviates: Table 2B comparator compounds, first value of cell (ADP-Glo), read-out: PI3Kα Ki.
Where [13] appears, read: Table 2B comparator compounds, first value of cell (ADP-Glo).
Setting [14] is: read-out: P-PRAS40 SW48(parental) EC50 (μM).

pEC50, pKi: −log10 of the molar value. Where two headings read alike, the source gives them in different places.

Chain of PI3Kδ (O00329 whole entry): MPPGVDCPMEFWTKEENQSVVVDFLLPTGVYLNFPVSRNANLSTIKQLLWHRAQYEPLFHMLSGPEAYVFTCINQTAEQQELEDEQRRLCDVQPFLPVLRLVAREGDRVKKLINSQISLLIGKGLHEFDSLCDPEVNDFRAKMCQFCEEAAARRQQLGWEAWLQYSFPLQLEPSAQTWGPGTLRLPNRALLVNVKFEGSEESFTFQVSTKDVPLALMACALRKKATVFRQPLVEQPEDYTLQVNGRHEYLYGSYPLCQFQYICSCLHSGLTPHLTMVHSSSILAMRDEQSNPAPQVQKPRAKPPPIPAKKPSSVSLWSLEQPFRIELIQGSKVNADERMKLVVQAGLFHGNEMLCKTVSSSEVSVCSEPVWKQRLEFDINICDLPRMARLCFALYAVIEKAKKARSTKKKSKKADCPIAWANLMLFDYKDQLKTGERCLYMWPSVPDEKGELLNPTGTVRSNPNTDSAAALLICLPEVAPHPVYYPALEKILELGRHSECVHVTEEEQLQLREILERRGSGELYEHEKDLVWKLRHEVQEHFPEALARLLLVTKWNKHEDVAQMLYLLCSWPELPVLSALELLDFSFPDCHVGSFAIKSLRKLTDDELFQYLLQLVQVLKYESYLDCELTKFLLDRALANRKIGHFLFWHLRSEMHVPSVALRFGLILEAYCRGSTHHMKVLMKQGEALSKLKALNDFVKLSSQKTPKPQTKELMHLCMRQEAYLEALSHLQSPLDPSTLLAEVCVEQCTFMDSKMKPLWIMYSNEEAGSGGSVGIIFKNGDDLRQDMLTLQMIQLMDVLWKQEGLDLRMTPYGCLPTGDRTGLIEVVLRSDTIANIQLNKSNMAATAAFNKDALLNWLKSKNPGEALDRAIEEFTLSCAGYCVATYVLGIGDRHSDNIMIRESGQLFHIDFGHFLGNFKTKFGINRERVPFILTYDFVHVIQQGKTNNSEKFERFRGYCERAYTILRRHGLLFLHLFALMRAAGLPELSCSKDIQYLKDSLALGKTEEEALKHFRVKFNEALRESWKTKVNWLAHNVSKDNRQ
Chain of PI3Kδ (P27986 whole entry partner): as the sequence (P27986 whole entry partner) above
Chain of PI3Kβ (P42338 whole entry, canonical isoform): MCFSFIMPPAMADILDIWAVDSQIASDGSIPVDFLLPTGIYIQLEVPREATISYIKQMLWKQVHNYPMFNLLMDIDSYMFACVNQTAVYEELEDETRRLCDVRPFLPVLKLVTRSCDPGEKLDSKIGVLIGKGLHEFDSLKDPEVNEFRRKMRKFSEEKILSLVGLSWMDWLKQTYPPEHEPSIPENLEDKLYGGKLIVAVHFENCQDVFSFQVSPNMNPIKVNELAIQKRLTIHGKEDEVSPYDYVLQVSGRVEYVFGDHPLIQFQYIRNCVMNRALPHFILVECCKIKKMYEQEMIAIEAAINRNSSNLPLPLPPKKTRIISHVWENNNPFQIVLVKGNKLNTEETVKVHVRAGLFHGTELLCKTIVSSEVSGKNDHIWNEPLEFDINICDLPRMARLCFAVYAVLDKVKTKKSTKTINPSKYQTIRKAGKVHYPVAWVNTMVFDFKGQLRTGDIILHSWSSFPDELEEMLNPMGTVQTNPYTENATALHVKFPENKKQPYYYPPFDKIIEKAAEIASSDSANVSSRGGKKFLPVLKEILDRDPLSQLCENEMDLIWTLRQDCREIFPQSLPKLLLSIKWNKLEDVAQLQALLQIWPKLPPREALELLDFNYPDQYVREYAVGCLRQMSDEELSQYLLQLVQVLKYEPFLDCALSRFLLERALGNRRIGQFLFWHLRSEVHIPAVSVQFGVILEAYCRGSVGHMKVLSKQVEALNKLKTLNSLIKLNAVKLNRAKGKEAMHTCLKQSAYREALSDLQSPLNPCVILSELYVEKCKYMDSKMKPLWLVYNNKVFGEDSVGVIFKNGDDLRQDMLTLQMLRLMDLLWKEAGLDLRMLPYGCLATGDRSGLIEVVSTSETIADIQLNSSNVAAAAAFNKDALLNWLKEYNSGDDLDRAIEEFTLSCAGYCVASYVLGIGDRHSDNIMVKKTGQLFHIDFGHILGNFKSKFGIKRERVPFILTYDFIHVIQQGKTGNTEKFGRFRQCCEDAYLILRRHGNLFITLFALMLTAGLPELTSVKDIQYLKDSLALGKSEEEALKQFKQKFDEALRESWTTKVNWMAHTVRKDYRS
Chain of PI3Kβ (P27986 whole entry partner, canonical isoform): as the sequence (P27986 whole entry partner) above

For the compound `CC(C)[C@@H]1COC(=O)N1c1cn2c(n1)-c1ccc(O[C@@H](C)C(N)=O)cc1OCC2` [Compound 101, (S)-2-((2-((R)-4-isopropyl-2-oxooxazolidin-3-yl)-5,6-dihydrobenzo[f]imidazo[1,2-d][1,4]oxazepin-9-yl)oxy)propanamide], the pEC50 (commonly the negative decadic logarithm of the EC50, by convention in mol/L) in assay [1] (setting [8]) was 7.49; in assay [5] (setting [8]), 7.48. In addition, the “Fold Selectivity for SW48(H1047R) vs. SW48(parental)” value in assay [1] (setting [9]) is recorded as 2.1 (p < 0.001). Also, the pKi (in general, the negative decadic logarithm of the Ki, by convention in mol/L) in assay [2] is 6.41; in assay [3], 7.14; in assay [4] (Table 2A, first value of cell (ADP-Glo, Example 901), read-out: PI3Kα Ki), 9.10; in assay [6] (Table 2A, first value of cell (ADP-Glo, Example 901)), 7.73. The “Selectivity for PI3Kα vs. PI3K-β” value in assay [4] (setting [10]) was found to be 488. Also, the “Selectivity for PI3Kα vs. PI3Kγ” value in assay [4] (setting [10]) was 91. In assay [4] (setting [10]), the “Selectivity for PI3Kα vs. PI3Kδ” value worked out at 23. Besides, the “Fold Selectivity for SW48(E545K) vs. SW48(parental)” value in assay [5] (setting [9]) is 2.1 (p < 0.001). In addition, in assay [7] (read-out: P-PRAS40 SW48(parental) EC50 (nM)), the EC50 (commonly the midpoint of the concentration-response curve) turned out to be 68.2 nM.

As to `NC(=O)[C@@H]1CCCN1c1ccc2c(c1)OCCn1cc(-c3ncnn3CC(F)(F)F)nc1-2` [Compound 469, reference compound], the pEC50 in assay [1] (setting [11]) was 9.05; in assay [5] (setting [11]), 9.10. Further, the “Fold Selectivity for SW48(H1047R) vs. SW48(parental)” value in assay [1] (Table 3B, EC50 potency ratio) is listed as 1.6 (p = 0.11). Also, the pKi in assay [4] (setting [12]) is 10.60; in assay [6] (setting [13]) it was 9.37. Moreover, the “Selectivity for PI3Kα vs. PI3Kδ” value in assay [4] (Table 2B comparator compounds, selectivity ratio (fold)) turned out to be 17. In addition, the “Fold Selectivity for SW48(E545K) vs. SW48(parental)” value in assay [5] (Table 3B, EC50 potency ratio) was 1.8 (p = 0.04). Moreover, the EC50 in assay [7] (setting [14]) worked out at 1 nM.

Consider `C[C@H](Oc1ccc2c(c1)OCCn1cc(-c3ncnn3CC(F)(F)F)nc1-2)C(N)=O` [Compound 486, reference compound], for which the negative logarithm of the EC50 (pEC50) in assay [1] (setting [11]) is 8.23; in assay [5] (setting [11]), 8.26. Further, the “Fold Selectivity for SW48(H1047R) vs. SW48(parental)” value in assay [1] (Table 3B, EC50 potency ratio) was 1.0 (p = 0.74). The pKi is 9.73 in assay [4] (setting [12]) and 8.60 in assay [6] (setting [13]). In addition, the “Fold Selectivity for SW48(E545K) vs. SW48(parental)” value in assay [5] (Table 3B, EC50 potency ratio) is on record as 1.1 (p = 0.44). In assay [7] (setting [14]), the EC50 was 6.2 nM.

In the case of `CCn1ncnc1-c1cn2c(n1)-c1ccc(O[C@@H](C)C(N)=O)cc1OCC2` [Compound 544, reference compound], the pEC50 in assay [1] (setting [11]) was 7.74; in assay [5] (setting [11]), 7.80. This compound had a pKi in assay [6] (setting [13]) of 7.95. Moreover, the EC50 in assay [7] (setting [14]) is 47.7 nM.

Turning to `C[C@H](Oc1ccc2c(c1)OCCn1cc(-c3ncnn3C)nc1-2)C(N)=O` [Compound 540, reference compound], the pEC50 in assay [1] (setting [11]) is 6.74; in assay [5] (setting [11]) it was 6.77. This compound also gave a pKi in assay [6] (setting [13]) of 7.62. Also, in assay [7] (setting [14]), the EC50 was 381 nM.

For the compound `CC(C)(O)Cn1cc(-c2ccc3c(c2)OCCc2sc(N4C(=O)OCC4(C)C)nc2-3)cn1` [356 (U.S. Pat. No. 8,263,633), reference compound], the pEC50 was 7.10 in assay [1] (setting [11]) and 7.11 in assay [5] (setting [11]). Moreover, the “Fold Selectivity for SW48(H1047R) vs. SW48(parental)” value in assay [1] (Table 3B, EC50 potency ratio) is reported as 3.9 (p < 0.001). In assay [4], the “Selectivity for PI3Kα vs. PI3Kδ” value was 1. Moreover, the results for the pKi in assay [4] (setting [12]) and in assay [6] (setting [13]) were 9.01 and 9.04, respectively. Besides, in assay [5] (Table 3B, EC50 potency ratio), the “Fold Selectivity for SW48(E545K) vs. SW48(parental)” value was 4.0 (p < 0.001). The EC50 in assay [7] (setting [14]) was 310 nM.

For the compound `CC(C)n1ncnc1-c1cn2c(n1)-c1ccc(N3CCC[C@H]3C(N)=O)cc1OCC2` [Compound 375, reference compound], the “Fold Selectivity for SW48(H1047R) vs. SW48(parental)” value in assay [1] was 1.5 (p = 0.20). Moreover, the EC50 in assay [1] (Homo sapiens, SW48, 24 h, read-out: P-PRAS40 SW48(H1047R) EC50 (μM)) worked out at 0.001 µM; in assay [5] (Homo sapiens, SW48, 24 h, read-out: P-PRAS40 SW48(E545K) EC50 (μM)), 0.0011 µM; in assay [7] (setting [14]), 1.6 nM. Besides, the values for the pKi in assay [4] and in assay [6] (setting [13]) were 10.80 and 9.45, respectively. For the same compound, in assay [5], the “Fold Selectivity for SW48(E545K) vs. SW48(parental)” value is given as 1.4 (p = 0.23).
